Patent US8530452B2, “Tricyclic boron compounds for antimicrobial therapy” (Micurx Pharmaceuticals, Inc., priority 2011, dated 2013)
Where two headings read alike, the source gives them in different places. Values belong to the compound of their own block, whether it stands above or below them.

Legend:
[1] = tested on: Gram-negative pathogens; assay: Antibacterial activity against Gram-negative pathogens in vitro (overall statements); assay type: cell-based; settings: Table 1 pathogens overall
Text: (§1) The in vitro activity of compounds provided herein may be assessed by standard testing procedures such as the determination of minimum inhibitory concentration (MIC) as described in Approved Standard. Methods for Dilution Antimicrobial Susceptibility Tests for Bacteria that Grow Aerobically, 3rd ed., 1993, published by the National Committee for Clinical Laboratory standards, Villanova, Pa., USA. Low MIC values indicate high antibacterial activity, while high MIC values reveal a reduced antibacterial activity (with higher drug concentration required for pathogen eradication in the latter instance).

[2] = rat PK model of intravenous administration; assay type: in vivo; settings: for AUC: in vivo
Text: To further elucidate therapeutic potential of drug compounds, pharmacokinetic (PK) data is used to establish the key parameters predictive of the therapy outcome, such as area under the curve (AUC) for a plot monitoring the change in the systemic drug concentration over time. Thus, a higher AUC value indicates a greater exposure to the drug, commonly associated with a greater therapeutic potential due to a higher amount of drug available to combat the infection in a mammal. In contrast, a lower AUC value indicates a reduced exposure to the drug under study, resulting in a reduced amount of antibiotic available to combat bacterial infestations. To that end, the compounds provided herein have been tested in the rat PK model of intravenous administration performed analogously to methods described in the monograph Current Protocols in Pharmacology, 2005, 7.1.1-7.1.26, John Wiley & Sons, Inc.

[3] = tested on: P. aeruginosa; assay: P. aeruginosa neutropenic mouse thigh infection model; assay type: in vivo; settings: for reduction in the bacterial colony-forming units (CFU) / reduction in the bacterial colony-forming units (CFU), fold: 30 mg/kg; for CFU reduction / CFU reduction, fold: side-by-side test Example 1 vs Example 10, dose not given
Procedure: To establish the efficacy of the compounds provided herein in vivo, testing in a P. aeruginosa neutropenic mouse thigh infection model was performed with subcutaneous administration of test compounds analogously to the method described by Andes et al. in Antimicrobial Agents and Chemotherapy, 2002, 46(11), 3484-3489. In this model, a greater reduction in the bacterial colony-forming units (CFU) indicates more beneficial therapeutic effect (more bacterial eradication), while a lower CFU reduction indicates a lower effect (less bacterial eradication). The in vivo antibacterial effect is also referred to as efficacy, in contrast to the term potency commonly used for in vitro activity (expressed as MIC).

[4] = tested on: K. pneumoniae; assay: MIC determination, antibacterial activity in vitro; assay type: cell-based, Klebsiela pneumoniae; settings: for MIC: Klebsiella pneumoniae, Strain K. pneumoniae KPN1004, read-out: MIC, K. pneumoniae (footnote c)
Text: as §1

[5] = tested on: E. coli; assay: MIC determination, antibacterial activity in vitro; assay type: cell-based, Escherichia coli; settings: MIC ratio vs Example 24
Text: as §1

[6] = tested on: P. aeruginosa; assay: MIC determination, antibacterial activity in vitro; assay type: cell-based, Pseudomonas aeruginosa; settings: for MIC: Pseudomonas aeruginosa, read-out: MIC against P. aeruginosa; for reduced potency / loss of activity vs. P. aeruginosa compared to Example 7: MIC ratio vs Example 7
Text: as §1

[7] = tested on: A. baumannii; assay: MIC determination, antibacterial activity in vitro; assay type: cell-based, Acinetobacter baumannii; settings: for MIC: Acinetobacter baumannii, Strain A. baumannii MABA0001, read-out: MIC, A. baumannii (footnote b); for reduced potency / loss of activity vs. A. baumannii compared to Example 7: MIC ratio vs Example 7
Text: as §1

[8] = intravenous, 10 mg/kg, read-out: exposure (AUC)
[9] = subcutaneous, side-by-side test Example 3 vs Example 24
[10] = another test, side-by-side Example 3 vs Example 25
[11] = intravenous, dose not given, Example 1 vs Example 10, read-out: AUC

Structure (SMILES): Cl.NC[C@H]1OB2O[C@H](CO)COc3c(F)ccc1c32 [Example 18, ((2S,8R)-2-(Aminomethyl)-5-fluoro-7,8-dihydro-2H-1,6,9-trioxa-9a-borabenzo[cd]azulen-8-yl)methanol hydrochloride]
antibacterial activity (potency) in words [1]: reduced activity

Structure (SMILES): Cl.NC[C@H]1OB2O[C@H](CO)COc3cccc1c32 [Example 3, ((2S,8R)-2-(Aminomethyl)-7,8-dihydro-2H-1,6,9-trioxa-9a-borabenzo[cd]azulen-8-yl)methanol hydrochloride]
AUC [2, 8]: ~14100 ng·h/mL
improvement in exposure (AUC) over reference compound of Example 24 ([2]; intravenous, 10 mg/kg): 2.7 fold
improvement in exposure (AUC) over reference compound of Example 25 ([2]; intravenous, 10 mg/kg): over 2 fold
higher degree of pathogen reduction compared to reference compound of Example 24 ([3]; 30 mg/kg both agents): over 80 fold
more efficient in thigh infection model compared to reference compound of Example 25 ([3]; 30 mg/kg both agents): about 12 fold
reduction in the bacterial colony-forming units (CFU) [3, 9]: about 3.6 log
reduction in the bacterial colony-forming units (CFU), fold [3, 9]: about 3981 fold
reduction in the bacterial colony-forming units (CFU) [3, 10]: about 3.44 log
reduction in the bacterial colony-forming units (CFU), fold [3, 10]: about 2754 fold
improved activity against K. pneumoniae as compared to reference compound of Example 24 ([4]; MIC ratio vs Example 24): 2 fold
improved activity against E. coli as compared to reference compound of Example 24 [5]: 2 fold
improved activity against P. aeruginosa as compared to reference compound of Example 24 ([6]; MIC ratio vs Example 24): 2 fold
MIC [6]: 2 to 4 µg/mL

Structure (SMILES): Cl.NCC1OB2O[C@@H](CO)COc3cccc1c32 (stereo partly drawn) [Example 4, ((8S)-2-(Aminomethyl)-7,8-dihydro-2H-1,6,9-trioxa-9a-borabenzo[cd]azulen-8-yl)methanol hydrochloride]
MIC [7]: 4000 µg/mL
MIC [4]: 2000 µg/mL
MIC [6]: 2 to 4 µg/mL

AUC [2, 11]: ~5370 ng·h/mL
MIC [6]: 8 µg/mL
Structure (SMILES): Cl.NCC1OB(O)c2c(OCCCO)cccc21 (stereo not drawn) [Reference Example 10, 3-(Aminomethyl)-7-(3-hydroxypropoxy)benzo[c][1,2]oxaborol-1(3H)-ol hydrochloride, reference compound]
CFU reduction [3]: about 1.3 log
CFU reduction, fold [3]: about 20 fold

Structure (SMILES): CC(O)C1COc2cccc3c2B(OC3CN)O1.Cl (stereo not drawn) [Example 14, 1-(2-(Aminomethyl)-7,8-dihydro-2H-1,6,9-trioxa-9a-borabenzo[cd]azulen-8-yl)ethanol hydrochloride]
reduced potency / loss of activity vs. A. baumannii compared to Example 7 [7]: about 4 fold

Structure (SMILES): CC1(CO)COc2cccc3c2B(OC3CN)O1.Cl (stereo not drawn) [Example 13, (2-(Aminomethyl)-8-methyl-7,8-dihydro-2H-1,6,9-trioxa-9a-borabenzo[cd]azulen-8-yl)methanol hydrochloride]
reduced potency / loss of activity vs. A. baumannii compared to Example 7 [7]: about 4 fold

Structure (SMILES): Cl.NCC1OB2OC(CCO)COc3cccc1c32 (stereo not drawn) [Example 12, 2-(2-(Aminomethyl)-7,8-dihydro-2H-1,6,9-trioxa-9a-borabenzo[cd]azulen-8-yl)ethanol hydrochloride]
activity vs. A. baumannii in words ([7]; compared to Example 7): total loss of activity
reduced potency / loss of activity vs. P. aeruginosa compared to Example 7 [6]: 4 fold

Structure (SMILES): Cl.NCC1OB(O)c2c(OCC(CO)CO)cccc21 (stereo not drawn) [compound 23, 2-(((3-(Aminomethyl)-1-hydroxy-1,3-dihydrobenzo[c][1,2]oxaborol-7-yl)oxy)methyl)propane-1,3-diol hydrochloride]
antibacterial activity (potency) in words [1]: essentially inactive

Structure (SMILES): Cl.NCC1OB2OCCOc3cccc1c32 (stereo not drawn) [compound 24, (7,8-Dihydro-2H-1,6,9-trioxa-9a-borabenzo[cd]azulen-2-yl)methanamine hydrochloride, reference compound]
AUC [2, 8]: ~5300 ng·h/mL
reduction in the bacterial colony-forming units (CFU) [3, 9]: about 1.7 log
reduction in the bacterial colony-forming units (CFU), fold [3, 9]: about 50 fold

Structure (SMILES): Cl.NCC1OB2OC(CO)COc3cccc1c32 (stereo not drawn) [Example 7]
MIC [7]: 4000 µg/mL
MIC [4]: 4000 µg/mL
MIC [6]: 2 to 4 µg/mL

Structure (SMILES): Cl.NCC1OB2O[C@H](CO)COc3cccc1c32 (stereo partly drawn) [Example 1, ((8R)-2-(Aminomethyl)-7,8-dihydro-2H-1,6,9-trioxa-9a-borabenzo[cd]azulen-8-yl)methanol hydrochloride]
AUC [2, 11]: ~11500 ng·h/mL
improvement in exposure (AUC) over reference compound of Example 10 ([2]; intravenous): more than 2 fold
superiority in the bacterial reduction over Example 10 ([3]; side-by-side test): 79 fold
CFU reduction [3]: about 3.2 log
CFU reduction, fold [3]: about 1584 fold
MIC [6]: 2 to 4 µg/mL

Structure (SMILES): Cl.NCC1OB(O)c2c(OCC[C@H](O)CO)cccc21 (stereo partly drawn) [compound 22, (2S)-4-((3-(Aminomethyl)-1-hydroxy-1,3-dihydrobenzo[c][1,2]oxaborol-7-yl)oxy)butane-1,2-diol hydrochloride]
antibacterial activity (potency) in words [1]: essentially inactive

Structure (SMILES): Cl.NC[C@H]1OB(O)c2c(OCCCO)cccc21 [compound 25, (S)-3-(Aminomethyl)-7-(3-hydroxypropoxy)benzo[c][1,2]oxaborol-1(3H)-ol hydrochloride, reference compound]
antibacterial activity (potency) in words [1]: active
AUC ([2]; iv, 10 mg/kg): ~6240 ng·h/mL
reduction in the bacterial colony-forming units (CFU) [3, 10]: about 2.37 log
reduction in the bacterial colony-forming units (CFU), fold [3, 10]: about 234 fold

Structure (SMILES): Cl.NCC1OB2OCC(CO)Oc3cccc1c32 (stereo not drawn) [Example 11, (2-(Aminomethyl)-7,8-dihydro-2H-1,6,9-trioxa-9a-borabenzo[cd]azulen-7-yl)methanol hydrochloride]
reduced potency / loss of activity vs. A. baumannii compared to Example 7 [7]: 4 fold
reduced potency / loss of activity vs. P. aeruginosa compared to Example 7 [6]: 4 fold
